{"source": "patent US20140206657A1", "about": "“BILE ACID ANALOG TGR5 AGONISTS” (City of Hope, priority 2013, published 2014)", "key": {"human TGR5": {"target": "T1, human TGR5 (Homo sapiens, UniProt Q8TDU6)", "T1 construct": "expressed in transfected cells", "T1 sequence (Q8TDU6 1-330)": "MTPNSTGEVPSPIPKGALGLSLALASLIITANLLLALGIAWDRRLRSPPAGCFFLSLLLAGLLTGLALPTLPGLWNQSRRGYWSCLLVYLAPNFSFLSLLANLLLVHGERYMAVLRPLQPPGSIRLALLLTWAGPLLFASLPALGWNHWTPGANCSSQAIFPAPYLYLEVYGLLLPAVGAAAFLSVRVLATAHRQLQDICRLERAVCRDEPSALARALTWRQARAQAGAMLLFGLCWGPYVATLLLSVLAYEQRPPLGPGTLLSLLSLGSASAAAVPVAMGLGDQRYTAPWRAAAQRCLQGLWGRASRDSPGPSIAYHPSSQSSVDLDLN", "assay": "cAMP assay, HEK293 cells stably expressing human TGR5", "format": "cell-based", "method": "The changes in cAMP elicited by these bile acid derivatives was determined after binding to the TGR5. […] HEK293 cells stably expressing human TGR5 were treated with increasing doses of ligand after 6 hours of stimulation, and intracellular cAMP levels were measured by luminescence. […] Data analysis to determine EC50 values was performed with GraphPad Prism software using a cAMP standard curve and sigmoidal dose-response (variable slope) equation based on dose-response curves with tested compounds."}}}
{"smiles": "CC[C@H]1C[C@@H]2[C@H](CC[C@]3(C)[C@@H]([C@H](C)C[C@H](C)C(=O)O)CC[C@@H]23)[C@@]2(C)CC[C@@H](O)C[C@@H]12", "values": [{"measurement": "melting point", "result": 137.7, "unit": "°C"}]}
{"smiles": "C[C@H](C[C@H](C)C(=O)O)[C@H]1CC[C@H]2[C@@H]3CC[C@@H]4C[C@H](O)CC[C@]4(C)[C@H]3CC[C@]12C", "note": "[compound 13, 23(S)-Methyl-3α-hydroxy-5β-cholan-24-oic acid]", "values": [{"measurement": "EC50", "setting": "human TGR5", "result": 210, "unit": "nM"}]}
{"smiles": "CC[C@H]1[C@H](O)[C@@H]2[C@H](CC[C@]3(C)[C@@H]([C@H](C)C[C@H](C)C(=O)O)CC[C@@H]23)[C@@]2(C)CC[C@@H](O)C[C@@H]12", "note": "[compound 24, 3α,7β-Dihydroxy-23(S)-methyl-6α-ethyl-5β-cholan-24-oic acid]", "values": [{"measurement": "EC50", "setting": "human TGR5", "result": 710, "unit": "nM"}]}
{"smiles": "CC[C@@]1(O)CC[C@@]2(C)[C@H](CC[C@@H]3[C@@H]2CC[C@]2(C)[C@@H]([C@H](C)CCC(=O)O)CC[C@@H]32)C1", "note": "[compound 26, 3β-Ethyl-3α-hydroxy-LCA]", "values": [{"measurement": "TGR5 activity / potency, in words (SAR statements)", "setting": "human TGR5; assay not named in b266 and b269, b275 belongs to the cAMP example", "result": "large loss in potency"}]}
